Experimental data: patent publication US11639353B2, “Cyclobutanes- and azetidine-containing mono and spirocyclic compounds as αV integrin inhibitors” (BRISTOL-MYERS SQUIBB COMPANY, priority 2016, dated 2023)
Structures can show the parent of a compound that is named as a salt.

Molecular target: T1, human αVβ6 (Homo sapiens, UniProt P06756+P18564)
T1 construct: purchased R & D systems 3817-AV
Test: human αVβ6 HTRF binding assay
Settings: alternatively SPA-based assay
Experimental: All binding assays used the HTRF (homogeneous time resolved fluorescence) technology from Cisbio International, therefore all assays are described as HTRF binding assays. The assay results for the Examples are listed above together with the characterization data. The HTRF binding assays are established for the following integrins: human αVβ6, human αVβ1, human αVβ3, human αVβ5, and human αVβ8. All assays used the following assay buffer: 20 mM Tris, pH 7.4, 1 mM MgCl2, 1 mM MnCl2, 0.01% Tween 20, and 0.01% BSA. Alternatively, a SPA-based assay was used for evaluation of receptor binding.
The following describes the components and a representative procedure for the human αVβ6 HTRF binding assay: Recombinant human αVβ6 Integrin (R & D systems, 3817-AV) was biotinylated. Biotinylated human αVβ6 Integrin was added to assay vessel at a final concentration of 1.25 nM. FITC-conjugated fibronectin (Cytoskeleton, FNR02) was then added at the final concentration of 5 nM. The mixture was centrifuged at 600 rpm for three minutes using Thermo Fisher Heraeus Multifuge X3 centrifuge and then incubated at RT for an hour. Streptavidin Terbium (Cisbio international 610STLB) was then added at the final concentration of 0.625 nM. The resulting mixture was centrifuged at 600 rpm for three minutes using Thermo Fisher Heraeus Multifuge X3 centrifuge and then incubated at room temperature overnight in dark before reading HTRF signals.
The SPA-based assay was carried out according to the protocol and procedures similar to the ones described in the following reference with appropriate modifications to agents and ligands which are readily understood by one skilled in the art: Pachter J A, Zhang R, Mayer-Ezell R., “Scintillation proximity assay to measure binding of soluble fibronectin to antibody-captured αVβ1 integrin” Anal Biochem. 1995 Sep. 1; 230(1):101-7.

T1 sequence (P06756 31-992 limits assumed): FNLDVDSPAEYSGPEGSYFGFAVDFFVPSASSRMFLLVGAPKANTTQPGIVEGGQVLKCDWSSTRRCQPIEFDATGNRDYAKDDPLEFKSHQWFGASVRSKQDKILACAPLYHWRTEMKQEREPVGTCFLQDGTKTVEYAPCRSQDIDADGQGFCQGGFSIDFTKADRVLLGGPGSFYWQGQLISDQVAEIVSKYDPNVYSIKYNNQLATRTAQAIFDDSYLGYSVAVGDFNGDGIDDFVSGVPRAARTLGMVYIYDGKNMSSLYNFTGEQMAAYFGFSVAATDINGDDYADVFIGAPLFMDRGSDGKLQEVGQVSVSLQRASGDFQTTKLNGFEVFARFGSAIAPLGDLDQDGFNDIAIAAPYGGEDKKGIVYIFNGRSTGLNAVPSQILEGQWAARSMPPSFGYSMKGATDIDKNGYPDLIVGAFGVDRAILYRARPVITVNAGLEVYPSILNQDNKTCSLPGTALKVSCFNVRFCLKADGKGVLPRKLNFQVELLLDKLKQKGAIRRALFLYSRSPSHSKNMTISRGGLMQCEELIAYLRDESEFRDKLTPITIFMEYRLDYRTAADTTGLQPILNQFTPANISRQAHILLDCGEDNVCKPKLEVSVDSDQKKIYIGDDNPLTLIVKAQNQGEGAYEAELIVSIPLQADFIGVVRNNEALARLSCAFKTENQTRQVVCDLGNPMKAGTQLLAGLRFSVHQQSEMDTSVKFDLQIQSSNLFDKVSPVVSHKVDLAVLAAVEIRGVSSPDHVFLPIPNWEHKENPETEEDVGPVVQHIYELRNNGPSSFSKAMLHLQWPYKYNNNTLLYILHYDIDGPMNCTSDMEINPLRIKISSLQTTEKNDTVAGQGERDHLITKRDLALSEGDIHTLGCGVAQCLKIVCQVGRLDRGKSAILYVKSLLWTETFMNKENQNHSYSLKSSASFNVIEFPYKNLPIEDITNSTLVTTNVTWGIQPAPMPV
T1 sequence (P18564 22-707 limits assumed): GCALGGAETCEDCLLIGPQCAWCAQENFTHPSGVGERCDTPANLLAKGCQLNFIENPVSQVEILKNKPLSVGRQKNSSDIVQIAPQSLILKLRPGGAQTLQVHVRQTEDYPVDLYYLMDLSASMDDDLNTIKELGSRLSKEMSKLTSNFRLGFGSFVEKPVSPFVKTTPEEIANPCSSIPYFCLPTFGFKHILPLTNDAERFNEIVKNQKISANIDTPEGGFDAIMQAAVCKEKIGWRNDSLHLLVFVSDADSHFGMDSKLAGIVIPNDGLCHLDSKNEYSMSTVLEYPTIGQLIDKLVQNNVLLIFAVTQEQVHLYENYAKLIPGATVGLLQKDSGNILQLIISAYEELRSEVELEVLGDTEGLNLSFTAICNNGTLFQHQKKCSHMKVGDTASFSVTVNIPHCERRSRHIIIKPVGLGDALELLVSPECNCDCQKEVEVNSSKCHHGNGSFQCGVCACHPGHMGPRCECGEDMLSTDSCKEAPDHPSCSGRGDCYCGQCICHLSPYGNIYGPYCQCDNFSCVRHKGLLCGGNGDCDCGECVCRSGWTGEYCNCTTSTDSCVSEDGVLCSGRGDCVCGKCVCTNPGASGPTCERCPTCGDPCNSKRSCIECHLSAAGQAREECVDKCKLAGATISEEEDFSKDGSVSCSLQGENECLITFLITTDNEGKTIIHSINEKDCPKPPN

Row | SMILES | IC50 [nM]
1 | O=C(O)C[C@@H](c1cc(Cl)cc(Cl)c1)N1CC(CCCCc2ccc3c(n2)NCCC3)C1=O (some centres unmarked) [Example 108] | 0.72
2 | O=C(O)C[C@@H](c1cc(Cl)cc(Cl)c1)N1CC(CCCCc2ccc3c(n2)NCCC3)C1=O (some centres unmarked) [Example 109] | 0.89
3 | O=C(O)C[C@@H](c1ccc2c(c1)CCO2)N1CC(CCCCc2ccc3c(n2)NCCC3)C1=O (some centres unmarked) [Example 111] | 6
4 | O=C(O)C[C@@H](c1ccc(F)c(F)c1)N1CC(CCCCc2ccc3c(n2)NCCC3)C1=O (some centres unmarked) [Example 112] | 3.9
5 | O=C(O)C[C@@H](c1ccc(F)c(F)c1)N1CC(CCCCc2ccc3c(n2)NCCC3)C1=O (some centres unmarked) [Example 113] | 12
6 | COc1ccc(C(CC(=O)O)C2CC3(C2)CN(CCc2ccc4c(n2)NCCC4)C3)cc1F (centres unmarked) [Example 116] | 2.4
7 | O=C(O)CC(c1cnc2ccccc2c1)C1CC2(C1)CN(CCCc1ccc3c(n1)NCCC3)C2 (centres unmarked) [Example 117] | 2.7
8 | O=C(O)CC(c1cnc2ccccc2c1)C1(F)CN(CCCCc2ccc3c(n2)NCCC3)C1 (centres unmarked) [Example 118] | 5.9
9 | O=C(O)CCN(C(=O)OCc1ccccc1)C1CN(CCCc2ccc3c(n2)NCCC3)C1 [Example 119] | 7.4
10 | Cc1ncc([C@H](CC(=O)O)NC(=O)N2CC(CCc3ccc4c(n3)NCCC4)C2)cn1 [Example 120] | 5.9
11 | O=C(O)C[C@H](NC(=O)N1CC(CCc2ccc3c(n2)NCCC3)C1)c1cncnc1 [Example 121] | 6.2
12 | COc1ccc(C(CC(=O)O)C2(F)CN(CCCCc3ccc4c(n3)NCCC4)C2)cn1 (centres unmarked) [Example 122] | 28
13 | COc1ncc([C@H](CC(=O)O)NC(=O)N2CC(CCc3ccc4c(n3)NCCC4)C2)cn1 [Example 123] | 4.3
14 | O=C(O)CCC1CC2(C1)CC(CCc1ccc3c(n1)NCCC3)C2 (centres unmarked) [Example 124] | 93
15 | COc1ccc(C(CC(=O)O)C2CC(NCCCc3ccc4c(n3)NCCC4)C2)cn1 (centres unmarked) [Example 125] | 5.7
16 | COc1ccc(C(CC(=O)O)C2CC(NCCCc3ccc4c(n3)NCCC4)C2)cc1F (centres unmarked) [Example 126] | 4.18
17 | Cc1ncc(C(CC(=O)O)N2CC(COCCc3ccc4c(n3)NCCC4)C2)cn1 (centres unmarked) [Example 127, 3-(2-methylpyrimidin-5-yl)-3-(3-((2-(5,6,7,8-tetrahydro-1,8-naphthyridin-2-yl)ethoxy)methyl)azetidin-1-yl)propanoic acid, 2 TFA] | 7.9
18 | Cc1ncc(C(CC(=O)O)N2CC(OCCCc3ccc4c(n3)NCCC4)C2)cn1 (centres unmarked) [Example 130, 3-(2-methylpyrimidin-5-yl)-3-(3-(3-(5,6,7,8-tetrahydro-1,8-naphthyridin-2-yl)propoxy)azetidin-1-yl)propanoic acid, 2 TFA] | 8.2
19 | O=C(O)CC(c1cnc2ccccc2c1)N1CC(OCCCc2ccc3c(n2)NCCC3)C1 (centres unmarked) [Example 133] | 5.6
20 | COc1ccc(C(CC(=O)O)N2CC(OCCCc3ccc4c(n3)NCCC4)C2)cn1 (centres unmarked) [Example 134, 3-(6-methoxypyridin-3-yl)-3-(3-(3-(5,6,7,8-tetrahydro-1,8-naphthyridin-2-yl)propoxy)azetidin-1-yl)propanoic acid, 2 TFA] | 4.6
21 | COc1ccc(C(CC(=O)O)N2CC(OCCCc3ccc4c(n3)NCCC4)C2)cc1F (centres unmarked) [Example 135, 3-(3-fluoro-4-methoxyphenyl)-3-(3-(3-(5,6,7,8-tetrahydro-1,8-naphthyridin-2-yl)propoxy)azetidin-1-yl)propanoic acid, 2 TFA] | 4.9
22 | COc1ccc([C@@H](CC(=O)O)N2CC(OCCCc3ccc4c(n3)NCCC4)C2)cc1F [Example 137, (R)-3-(3-fluoro-4-methoxyphenyl)-3-(3-(3-(5,6,7,8-tetrahydro-1,8-naphthyridin-2-yl)propoxy)azetidin-1-yl)propanoic acid] | 160
23 | COc1ccc(C(CC(=O)O)C2CC(CCCCc3ccc4c(n3)NCCC4)C2)cn1 (centres unmarked) [Example 138, 3-(6-Methoxypyridin-3-yl)-3-(3-(4-(5,6,7,8-tetrahydro-1,8-naphthyridin-2-yl)butyl)cyclobutyl)propanoic acid] | 3.2
